Results on 1 compound are retold here after US11213666B2, “Method for administering a medicament suitable for treating a migraine or cluster headache” (SORRENTO THERAPEUTICS, INC., priority 2016, dated 2022).

Like-named read-outs stand apart in the source and are kept apart here.

A short description of data set [1]: Porcine pharmacokinetic study of sumatriptan delivered by the microneedle fluid delivery apparatus (FIG. 50). Particulars: 20 mg via fluid delivery apparatus (microneedles), pig, blood serum; compared with nasal, oral and Zecuity administration. The class given is in vivo, Yorkshire pigs. Here is the method:
In reference to FIG. 50, shown is the time versus concentration profile of sumatriptan as administered according to the methods and devices disclosed herein. An ideal profile (identified as “Target PK Profile”) is calculated based on the therapeutic efficiency of the medicament.
Thirty five 80 kg castrated or female Yorkshire pigs were placed under anesthesia and a catheter was inserted into the right or left jugular vein. After the catheter was placed, the pigs were kept under anesthesia and placed on their backs. The ventral region was shaved and covered with a depilatory cream (Nair Sensitive®) for 8 minutes. The cream was removed and the area washed with alcohol. The fluid delivery apparatus was placed against the skin with an adhesive and the microneedles (100 total) were inserted at a post traveling velocity of 6 m/s. A 20 mg dose of sumatriptan from the fluid deliver apparatus was delivered while the pig was under anesthesia. 3 mL blood samples were withdrawn at each time point and spun down to recover the blood serum.

The conditions of data set [2]: cited from earlier work.
The mark [3] stands for this setting: nasal administration, compared with the actual profile of the fluid delivery apparatus (FIG. 49 vs FIG. 50).
[4] abbreviates: subcutaneous administration, compared with the other routes of administration.

Consider `CNS(=O)(=O)Cc1ccc2[nH]cc(CCN(C)C)c2c1.O=C(O)CCC(=O)O` [sumatriptan, 1-[3-[2-(dimethylamino)ethyl]-1H-indol-5-yl]-N-methylmethanesulfonamide butanedioic acid], for which the AUC entry in data set [1] was “significantly improved”; in data set [2] (setting [3]), “significantly lower”. Also, the Css result in data set [1] was “significantly improved”; in data set [2] (setting [3]), “significantly lower”; in data set [2] (subcutaneous administration, as time progresses), “significantly lower”. The Tmax result is “significantly improved” in data set [1]; “much slower” in data set [2] (oral administration, compared with the actual profile of the fluid delivery apparatus); “much faster” in data set [2] (setting [4]). Further, in data set [2] (setting [4]), the Cmax result was “higher”.
